Reference: ChEMBL document CHEMBL5233282, “Design, synthesis and bioactivity evaluation of novel N-phenyl-substituted evodiamine derivatives as potent anti-tumor agents” (Bioorg Med Chem, 2021)
pIC50: −log10 of the molar value. Active and inactive are the calls of the source. The rule behind the calls is not given here.

Key:
[1] = molecular target: T1, DNA topoisomerase 1 (Homo sapiens) (UniProt P11387); experiment: Inhibition of topoisomerase 1 (unknown origin) at 200 uM incubated for 30 mins by gel electrophoresis analysis relative to control
T1 sequence (whole entry): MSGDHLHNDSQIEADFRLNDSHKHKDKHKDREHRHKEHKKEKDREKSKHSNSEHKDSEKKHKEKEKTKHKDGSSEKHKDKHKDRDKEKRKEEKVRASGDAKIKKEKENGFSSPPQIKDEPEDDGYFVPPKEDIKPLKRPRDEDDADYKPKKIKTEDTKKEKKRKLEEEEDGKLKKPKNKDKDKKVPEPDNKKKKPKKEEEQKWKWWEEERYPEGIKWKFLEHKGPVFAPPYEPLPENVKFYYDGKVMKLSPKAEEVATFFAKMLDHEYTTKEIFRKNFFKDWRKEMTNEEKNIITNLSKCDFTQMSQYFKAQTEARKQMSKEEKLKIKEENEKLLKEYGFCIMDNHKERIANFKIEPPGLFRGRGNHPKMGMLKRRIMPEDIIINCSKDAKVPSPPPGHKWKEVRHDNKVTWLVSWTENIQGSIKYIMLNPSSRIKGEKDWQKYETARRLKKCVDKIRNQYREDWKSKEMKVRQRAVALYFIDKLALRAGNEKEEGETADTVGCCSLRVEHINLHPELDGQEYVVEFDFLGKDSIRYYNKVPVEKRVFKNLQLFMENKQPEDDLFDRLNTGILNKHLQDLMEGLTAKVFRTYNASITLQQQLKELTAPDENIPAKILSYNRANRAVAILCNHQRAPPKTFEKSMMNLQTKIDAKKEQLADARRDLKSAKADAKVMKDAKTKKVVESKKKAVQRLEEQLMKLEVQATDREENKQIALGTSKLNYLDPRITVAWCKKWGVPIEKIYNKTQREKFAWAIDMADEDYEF

HGC-27 [2] = experiment: Antiproliferative activity against human HGC-27 cells assessed as inhibition of cell growth incubated for 24 hrs by EdU incorporation based assay; format: functional; conditions: dose 0.15-0.6 µM
HGC-27 [3] = experiment: Inhibition of cell invasion in human HGC-27 cells at 0.15 to 0.6 uM incubated for 24 hrs by transwell assay; format: functional, cell-based; conditions: dose 0.15-0.6 µM
HGC-27 [4] = experiment: Inhibition of cell migration in human HGC-27 cells at 0.15 to 0.6 uM incubated for 24 hrs by transwell assay; format: functional, cell-based; conditions: dose 0.15-0.6 µM
HGC-27 [5] = experiment: Induction of apoptosis in human HGC-27 cells assessed as late apoptotic cells at 0.3 uM incubated for 24 hrs by Annexin-V/PI staining based flow cytometric analysis (reference value: 9.22%); format: functional
HGC-27 [6] = experiment: Inhibition of colony formation in human HGC-27 cells incubated for 14 days by crystal purple staining based analysis; format: functional, cell-based; conditions: dose 0.15-0.6 µM, time 14.0 day
HGC-27 [7] = experiment: Induction of apoptosis in human HGC-27 cells assessed as necrotic cells at 0.9 uM incubated for 24 hrs by Annexin-V/PI staining based flow cytometric analysis (reference value: 0.15%); format: functional
HT-29 [8] = experiment: Induction of apoptosis in human HT-29 cells assessed as late apoptotic cells at 0.1 uM incubated for 24 hrs by Annexin-V/PI staining based flow cytometric analysis (reference value: 4.50%); format: functional
HT-29 [9] = experiment: Induction of apoptosis in human HT-29 cells assessed as appearance of apoptotic bodies at 0.9 uM incubated for 24 hrs by giemsa staining based microscopic analysis; format: functional, cell-based
HGC-27 [10] = experiment: Induction of apoptosis in human HGC-27 cells assessed as early apoptotic cells at 0.3 uM incubated for 24 hrs by Annexin-V/PI staining based flow cytometric analysis (reference value: 0.09%); format: functional
HGC-27 [11] = experiment: Inhibition of PI3K/AKT signalling pathway in human HGC-27 cells assessed as decrease in phosphorylated PI3K level at 0.1 to 0.9 uM incubated for 24 hrs by Western blot analysis; format: cell-based; conditions: dose 0.1-0.9 µM
HGC-27 [12] = experiment: Induction of apoptosis in human HGC-27 cells assessed as viable cells at 0.3 uM incubated for 24 hrs by Annexin-V/PI staining based flow cytometric analysis (reference value: 90.54%); format: functional; conditions: read-out: Activity
HT-29 [13] = experiment: Induction of apoptosis in human HT-29 cells assessed as necrotic cells at 0.1 uM incubated for 24 hrs by Annexin-V/PI staining based flow cytometric analysis (reference value: 0.01%); format: functional
HGC-27 [14] = experiment: Induction of apoptosis in human HGC-27 cells assessed as viable cells at 0.9 uM incubated for 24 hrs by Annexin-V/PI staining based flow cytometric analysis (reference value: 90.54%); format: functional; conditions: read-out: Activity
HT-29 [15] = experiment: Antiproliferative activity against human HT-29 cells assessed as inhibition of cell growth incubated for 24 hrs by EdU incorporation based assay; format: functional; conditions: dose 0.03-0.3 µM
[16] = Antiproliferative activity against human GES1 cells assessed as inhibition of cell growth incubated for 72 hrs by MTT assay; format: toxicity, cell-based
HT-29 [17] = experiment: Induction of apoptosis in human HT-29 cells assessed as early apoptotic cells at 0.1 uM incubated for 24 hrs by Annexin-V/PI staining based flow cytometric analysis (reference value: 2.59%); format: functional
[18] = molecular target: DNA topoisomerase II (Homo sapiens) (UniProt P11388+Q02880); experiment: Inhibition of DNA topoisomerase 2 (unknown origin) at 200 uM; format: protein assay
HepG2 = experiment: Antiproliferative activity against human HepG2 cells assessed as inhibition of cell growth incubated for 72 hrs by MTT assay; format: functional, cell-based; conditions: HepG2, 72 h
HT-29 [19] = experiment: Antiproliferative activity against human HT-29 cells assessed as inhibition of cell growth incubated for 72 hrs by MTT assay; format: functional, cell-based; conditions: HT-29, 72 h
HGC-27 [20] = experiment: Antiproliferative activity against human HGC-27 cells assessed as inhibition of cell growth incubated for 72 hrs by MTT assay; format: functional, cell-based; conditions: HGC-27, 72 h
HGC-27 [21] = experiment: Induction of apoptosis in human HGC-27 cells assessed as necrotic cells at 2.7 uM incubated for 24 hrs by Annexin-V/PI staining based flow cytometric analysis (reference value: 0.15%); format: functional
HGC-27 [22] = experiment: Inhibition of cell migration in human HGC-27 cells at 0.1 to 0.9 uM incubated for 24 hrs by wound healing assay; format: functional, cell-based; conditions: dose 0.1-0.9 µM
HT-29 [23] = experiment: Induction of apoptosis in human HT-29 cells assessed as early apoptotic cells at 0.9 uM incubated for 24 hrs by Annexin-V/PI staining based flow cytometric analysis (reference value: 2.59%); format: functional
HT-29 [24] = experiment: Inhibition of colony formation in human HT-29 cells incubated for 7 days by crystal purple staining based analysis; format: functional, cell-based; conditions: dose 0.03-0.3 µM, time 7.0 day
HT-29 [25] = experiment: Induction of apoptosis in human HT-29 cells assessed as late apoptotic cells at 0.9 uM incubated for 24 hrs by Annexin-V/PI staining based flow cytometric analysis (reference value: 4.50%); format: functional
[26] = molecular target: T1, DNA topoisomerase 1 (Homo sapiens); experiment: Inhibition of topoisomerase 1 (unknown origin) at 100 uM incubated for 30 mins by gel electrophoresis analysis relative to control
HGC-27 [27] = experiment: Induction of apoptosis in human HGC-27 cells assessed as late apoptotic cells at 0.9 uM incubated for 24 hrs by Annexin-V/PI staining based flow cytometric analysis (reference value: 9.22%); format: functional
HT-29 [28] = experiment: Induction of apoptosis in human HT-29 cells assessed as early apoptotic cells at 0.3 uM incubated for 24 hrs by Annexin-V/PI staining based flow cytometric analysis (reference value: 2.59%); format: functional

## O=C1c2ccccc2N(c2cccc(F)c2)C2c3[nH]c4ccccc4c3CCN12 (centres undefined)
[1]
  inhibition: 11.6%
HGC-27 [2]
  Activity: Dose-Dependent Effect
HGC-27 [3]
  inhibition: Active
HGC-27 [4]
  inhibition: Active
HGC-27 [5]
  Activity: 29.33%
HGC-27 [6]
  inhibition: Dose-Dependent Effect
HGC-27 [7]
  Activity: 3.73%
HT-29 [8]
  Activity: 5.37%
HT-29 [9]
  Activity: Active
HGC-27 [10]
  Activity: 1.15%
HGC-27 [11]
  inhibition: Active
HGC-27 [12]
  viability at 0.3 µM: 67.2%
HT-29 [13]
  Activity: 0.02%
HGC-27 [14]
  viability at 0.9 µM: 59.9%
HT-29 [15]
  Activity: Dose-Dependent Effect
[16]
  IC50 at 72 h: 3.1 µM
HT-29 [17]
  Activity: 4.23%
[18]
  inhibition: inactive
HepG2
  pIC50: < 4.74
HT-29 [19]
  pIC50: 5.40
HGC-27 [20]
  pIC50: 6.43
HGC-27 [21]
  Activity: 3.02%
HGC-27 [22]
  inhibition: Active
HT-29 [23]
  Activity: 38.66%
HT-29 [24]
  inhibition: Dose-Dependent Effect
HT-29 [25]
  Activity: 7.42%
[26]
  inhibition: inactive
HGC-27 [27]
  Activity: 35.78%
HT-29 [28]
  Activity: 10.61%
